Test results as given in PMC11845477, “Exploring the principles behind antibiotics with limited resistance” (Nature Communications, 2025).

Columns and labels:
[1] = system: E. coli BW25113-ΔacrB; assay: AcrAB-TolC efflux deficiency screen, relative MIC; assay type: cell-based, Escherichia coli; conditions: ΔacrB vs wild-type
Procedure, shortened: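 Broth microdilution in MHB (supplemented MS for SCH79797), ten-step antibiotic dilutions, 5 × 10^5 cells/mL, 18 h at 37 °C with shaking; MIC is lowest concentration giving background-corrected OD600 < 0.05. Relative MIC as log2 ratio: ΔacrB vs wild-type; pUCacrAB vs empty pUC118 (plasmid strains under 100 µg/mL ampicillin). Mean of 3 biological replicates.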

[2] = system: E. coli ATCC 25922 (SEN) and E. coli NCTC13846 (MDR); assay: Adaptive laboratory evolution (ALE), relative MIC of evolved lines; assay type: cell-based, Escherichia coli
Procedure, shortened: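 Ten parallel populations per antibiotic–ancestor pair were evolved in MHB at 37 °C, starting near 50% growth-inhibiting drug. Every 72 h they were passaged into 0.5–2.5× increasing concentrations, keeping the highest-drug well with OD600 > 0.2.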

[3] = EC-SEN (E. coli ATCC 25922), evolved line 5 vs ancestor
[4] = EC-SEN (E. coli ATCC 25922), evolved line 6 vs ancestor
[5] = EC-SEN (E. coli ATCC 25922), evolved line 7 vs ancestor
[6] = EC-SEN (E. coli ATCC 25922), evolved line 8 vs ancestor
[7] = EC-SEN (E. coli ATCC 25922), evolved line 9 vs ancestor
[8] = EC-SEN (E. coli ATCC 25922), evolved line 10 vs ancestor
[9] = EC-SEN (Escherichia coli ATCC 25922), evolved line 8
[10] = EC-SEN (Escherichia coli ATCC 25922), evolved line 10
[11] = Escherichia coli ATCC 25922 (EC-SEN), evolved line 5
[12] = Escherichia coli ATCC 25922 (EC-SEN), evolved line 6
[13] = Escherichia coli ATCC 25922 (EC-SEN), evolved line 7
[14] = Escherichia coli ATCC 25922 (EC-SEN), evolved line 8
[15] = Escherichia coli ATCC 25922 (EC-SEN), evolved line 9
[16] = Escherichia coli ATCC 25922 (EC-SEN), evolved line 10

C[C@@H](O)[C@H]1C(=O)N2C(C(=O)O)=C(S[C@H]3CC[S@@+]([O-])C3)S[C@H]12 [Sulopenem]
4: Relative MIC [2, 7] | Relative MIC [2, 8] | Relative MIC [2, 15] | Relative MIC [2, 16]
512: Relative MIC ([2]; EC-MDR (E. coli NCTC 13846), evolved line 1 vs ancestor) | Relative MIC ([2]; EC-MDR (E. coli NCTC 13846), evolved line 5 vs ancestor) | Relative MIC ([2]; Escherichia coli NCTC 13846 (EC-MDR), evolved line 1) | Relative MIC ([2]; Escherichia coli NCTC 13846 (EC-MDR), evolved line 5)
0.9031 log10: Relative MIC (log10) ([2]; EC-SEN (Escherichia coli ATCC 25922), evolved line 6) | Relative MIC (log10) ([2]; EC-SEN (Escherichia coli ATCC 25922), evolved line 7) | Relative MIC (log10) [2, 9]
0.585: Relative MIC (log2) ([1]; replicate 1) | Relative MIC (log2) ([1]; replicate 2) | Relative MIC (log2) ([1]; replicate 3)
0.25 µg/mL: MIC of evolved line ([2]; EC-SEN (E. coli ATCC 25922), evolved line 5 of the given antibiotic) | MIC of evolved line ([2]; EC-SEN (E. coli ATCC 25922), evolved line 6 of the given antibiotic) | MIC of evolved line ([2]; EC-SEN (E. coli ATCC 25922), evolved line 7 of the given antibiotic) | MIC of evolved line ([2]; EC-SEN (E. coli ATCC 25922), evolved line 8 of the given antibiotic)
128: Relative MIC ([2]; EC-MDR (E. coli NCTC 13846), evolved line 3 vs ancestor) | Relative MIC ([2]; EC-MDR (E. coli NCTC 13846), evolved line 4 vs ancestor) | Relative MIC ([2]; EC-MDR (E. coli NCTC 13846), evolved line 8 vs ancestor) | Relative MIC ([2]; EC-MDR (E. coli NCTC 13846), evolved line 10 vs ancestor) | Relative MIC ([2]; Escherichia coli NCTC 13846 (EC-MDR), evolved line 3) | Relative MIC ([2]; Escherichia coli NCTC 13846 (EC-MDR), evolved line 4) | Relative MIC ([2]; Escherichia coli NCTC 13846 (EC-MDR), evolved line 8) | Relative MIC ([2]; Escherichia coli NCTC 13846 (EC-MDR), evolved line 10)
2.408 log10: Relative MIC (log10) ([2]; EC-MDR (Escherichia coli NCTC 13846), evolved line 9)
0.5 µg/mL: MIC of evolved line ([2]; EC-MDR (E. coli NCTC 13846), evolved line 2 of the given antibiotic) | MIC of evolved line ([2]; EC-MDR (E. coli NCTC 13846), evolved line 7 of the given antibiotic)
16 µg/mL: MIC of evolved line ([2]; EC-MDR (E. coli NCTC 13846), evolved line 1 of the given antibiotic) | MIC of evolved line ([2]; EC-MDR (E. coli NCTC 13846), evolved line 5 of the given antibiotic)
0.125 µg/mL: MIC of evolved line ([2]; EC-SEN (E. coli ATCC 25922), evolved line 9 of the given antibiotic) | MIC of evolved line ([2]; EC-SEN (E. coli ATCC 25922), evolved line 10 of the given antibiotic)
2.709 log10: Relative MIC (log10) ([2]; EC-MDR (Escherichia coli NCTC 13846), evolved line 5)
2.107 log10: Relative MIC (log10) ([2]; EC-MDR (Escherichia coli NCTC 13846), evolved line 4) | Relative MIC (log10) ([2]; EC-MDR (Escherichia coli NCTC 13846), evolved line 8) | Relative MIC (log10) ([2]; EC-MDR (Escherichia coli NCTC 13846), evolved line 10)
8 µg/mL: MIC of evolved line ([2]; EC-MDR (E. coli NCTC 13846), evolved line 9 of the given antibiotic)
256: Relative MIC ([2]; EC-MDR (E. coli NCTC 13846), evolved line 9 vs ancestor) | Relative MIC ([2]; Escherichia coli NCTC 13846 (EC-MDR), evolved line 9)
0.6021 log10: Relative MIC (log10) ([2]; EC-SEN (Escherichia coli ATCC 25922), evolved line 9) | Relative MIC (log10) [2, 10]
16: Relative MIC ([2]; EC-MDR (E. coli NCTC 13846), evolved line 2 vs ancestor) | Relative MIC ([2]; EC-MDR (E. coli NCTC 13846), evolved line 7 vs ancestor) | Relative MIC ([2]; Escherichia coli NCTC 13846 (EC-MDR), evolved line 2) | Relative MIC ([2]; Escherichia coli NCTC 13846 (EC-MDR), evolved line 7)
8: Relative MIC [2, 3] | Relative MIC [2, 4] | Relative MIC [2, 5] | Relative MIC [2, 6] | Relative MIC [2, 11] | Relative MIC [2, 12] | Relative MIC [2, 13] | Relative MIC [2, 14]
4 µg/mL: MIC of evolved line ([2]; EC-MDR (E. coli NCTC 13846), evolved line 3 of the given antibiotic) | MIC of evolved line ([2]; EC-MDR (E. coli NCTC 13846), evolved line 4 of the given antibiotic) | MIC of evolved line ([2]; EC-MDR (E. coli NCTC 13846), evolved line 8 of the given antibiotic) | MIC of evolved line ([2]; EC-MDR (E. coli NCTC 13846), evolved line 10 of the given antibiotic)

C[C@@H]1CN2c3c(cc4c(N5C(=O)OC[C@@H]5C)noc4c3F)CC3(C(=O)NC(=O)NC3=O)[C@H]2[C@H](C)O1 [Zoliflodacin]
-4: Relative MIC (log2) ([1]; replicate 1) | Relative MIC (log2) ([1]; replicate 2) | Relative MIC (log2) ([1]; replicate 3)
2.408 log10: Relative MIC (log10) ([2]; EC-SEN (Escherichia coli ATCC 25922), evolved line 5)
256: Relative MIC [2, 3] | Relative MIC [2, 11]
2.107 log10: Relative MIC (log10) ([2]; EC-SEN (Escherichia coli ATCC 25922), evolved line 3) | Relative MIC (log10) ([2]; EC-SEN (Escherichia coli ATCC 25922), evolved line 4) | Relative MIC (log10) [2, 9] | Relative MIC (log10) [2, 10]
128: Relative MIC ([2]; EC-SEN (E. coli ATCC 25922), evolved line 3 vs ancestor) | Relative MIC ([2]; EC-SEN (E. coli ATCC 25922), evolved line 4 vs ancestor) | Relative MIC [2, 6] | Relative MIC [2, 8] | Relative MIC ([2]; Escherichia coli ATCC 25922 (EC-SEN), evolved line 3) | Relative MIC ([2]; Escherichia coli ATCC 25922 (EC-SEN), evolved line 4) | Relative MIC [2, 14] | Relative MIC [2, 16]
32: Relative MIC [2, 4] | Relative MIC [2, 12]
8: Relative MIC ([2]; EC-SEN (E. coli ATCC 25922), evolved line 2 vs ancestor) | Relative MIC ([2]; Escherichia coli ATCC 25922 (EC-SEN), evolved line 2)
64: Relative MIC ([2]; EC-SEN (E. coli ATCC 25922), evolved line 1 vs ancestor) | Relative MIC [2, 5] | Relative MIC [2, 7] | Relative MIC ([2]; Escherichia coli ATCC 25922 (EC-SEN), evolved line 1) | Relative MIC [2, 13] | Relative MIC [2, 15]
